Assays:
[1] = tested on: Vibrio campbellii BAA 1119 (AI-2); assay: microbe, parasite or virus in culture; assay type: cell-based; conditions: for EC50: Vibrio campbellii, BAA1119, 16 h, read-out: EC50 (concentration that halved the communication); for SI (selectivity index): ratio IC50 (viability) / EC50 (communication), BAA 1119
Source text: (§1) Commercially available strains of Vibrio campbellii were used to evaluate the ability of flavonoids and their derivatives to inhibit bacterial quorum sensing. V. campbellii uses two types of autoinducing molecules for its communication—N-acyl-homoserine lactones (Autoinducer I, AI-1, strain BAA 1118) and furanosyl borate diester (Autoinducer II, AI-2, strain BAA 1119). AI-1-based communication is mainly used by Gram-negative bacteria, while AI-2-based communication is found in both Gram-negative and Gram-positive bacteria. The mutant strains of V. campbellii BA1118 and BA1119 respond only to AI-1 or AI-2, respectively, and the response to the respective AI concentration is measured as luminescence. The higher the AI concentration, the higher the luminescence signal. The ability to inhibit the communication was expressed as the selectivity index (SI), calculated as the ratio between the concentration that halved the viability (IC50) and the concentration that halved the communication (EC50) of the respective V. campbellii strains. […] The antimicrobial activity of quorum-sensing inhibitors is undesirable because it creates a selection pressure and can lead to the development of resistance.
(§2) The inhibition of bacterial extracellular communication was measured using Vibrio campbellii strains BAA-1118 and BAA-1119. The experiment was performed according to the methods of Szemerédi et al.. Briefly, 5 × 10^5 CFU/mL (colony-forming units per milliliter) were seeded in an Autoinducer Bioassay medium (NaCl 17.5 g/L, MgSO4 12.3 g/L, Casamino acids 2 g/L, 10 mL of 1 M potassium phosphate pH 7.0, 10 mL of 0.1 M L-arginine, and 10 mL of glycerol in 970 mL of deionized water) in a 96-well plate. Immediately, the tested compounds were added at the final concentration of 0.2–200 µM and luminescence was recorded for 16 h by a SpectraMax i3x microplate reader set at 30 °C, an integration time of 10,000 ms, and shaking for 60 s before measurement. […] The selectivity index was calculated as the […]. The EC50 and IC50 were calculated using GraphPad Prism software version 5.00 for Windows with a nonlinear regression curve fit.

[2] = tested on: Vibrio campbellii BAA 1118 (AI-1); assay: microbe, parasite or virus in culture; assay type: cell-based; conditions: for EC50: Vibrio campbellii, BAA1118, 16 h, read-out: EC50 (concentration that halved the communication); for SI (selectivity index): ratio IC50 (viability) / EC50 (communication), BAA 1118
Source text: as §1, §2

DPPH radical scavenging = conditions: 1,1-diphenyl-2-picrylhydrazyl radical scavenging
Description: (§3) To further elucidate how halogenation affects other properties of the flavonoids studied, their 2,2′-azino-bis-(3-ethylbenzothiazoline-6-sulfonic acid) cation (ABTS) and 1,1-diphenyl-2-picrylhydrazyl (DPPH) radical scavenging, the Folin–Ciocalteu reagent (FCR) reducing, the ferric-reducing antioxidant power (FRAP), and the anti-lipoperoxidation activities were evaluated by in vitro methods (Supplementary Information Tables S1 and S2).
(§4) The antiradical activity was evaluated by the ability to scavenge ABTS and DPPH radicals. Reducing capacity was assessed by the ability to reduce the Folin–Ciocalteu reagent (FCR) and ferric ions (FRAP). The ability to inhibit lipid peroxidation of pooled male rat microsomal liver membranes induced by tert-butyl hydroperoxide was also evaluated and the results were expressed as IC50 values.

[3] = tested on: doxorubicin-resistant human ovarian carcinoma (HOC/DOX); assay: Cytotoxicity (resazurin assay, 72 h); assay type: cell-based; conditions: for IC50: Homo sapiens, 72 h, resazurin assay; for SI (selectivity index): ratio IC50 for HDF / IC50 for HOC/DOX
Description: (§5) The cytotoxicity of flavonoids and their halogenated derivatives was determined as their ability to decrease the viability of human dermal fibroblasts (HDF) and doxorubicin-resistant human ovarian carcinomas (HOC/DOX). Both cell lines were cultivated in Dulbecco’s Modified Eagle’s Medium supplemented with fetal bovine serum (FBS, 10% v/v) and 1 × antibiotic antimycotic solution and incubated at 37 °C in the atmosphere of 5% CO2. The experiment was performed according to a previously published method. Briefly, 1 × 10^5 cells/mL were seeded into a 96-well plate (100 µL/well). After 24 h, flavonoids and their derivatives were administered at the concentration range of 31.25–500 µM. After 72 h, the viability was determined by resazurin assay (0.03 mg/mL of resazurin in PBS), where the fluorescence was measured after 2 h of incubation by the SpectraMax i3x microplate reader at a wavelength of 560/590 nm (excitation/emission). The concentration inhibiting half of the population (IC50) was determined using nonlinear regression in GraphPad Prism software. The selectivity index was calculated as the ratio between the IC50 for HDF (control, non-cancerous cells) and the IC50 for HOC/DOX (cancer cells).

[4] = tested on: lipopolysaccharide-stimulated macrophages (RAW 264.7); assay: Inhibition of nitric oxide production (Griess reagent); assay type: cell-based, murine; conditions: Mus musculus, RAW264.7; LPS 100 ng/mL, 24 h; highest tested concentration 100 µM; read-out: NO Production IC50
Description: The anti-inflammatory activity of the tested flavonolignans was determined as the ability to reduce nitric oxide production by murine macrophages (RAW 264.7) stimulated by bacterial lipopolysaccharides, as previously described. […] For the experiment, 1 × 10^6 cells/mL was seeded into the 96-well plate (100 µL/well). […] After 24 h, the medium was mixed with Griess reagent (0.04 g/mL), prepared freshly in deionized water at the ratio of 1:1. The absorbance was measured after 15 min at 540 nm by the SpectraMax i3x microplate reader. Cell viability was determined by resazurin assay.

[5] = Ferric reducing antioxidant power (FRAP); conditions: Fe2+ equivalents
Description: as §3, §4

[6] = tested on: Vibrio campbellii BAA 1118 (AI-1); assay: Viability of the quorum-sensing reporter culture (resazurin assay), AI-1 strain; assay type: cell-based; conditions: BAA1118, V. campbellii BAA 1118, resazurin assay, read-out: IC50 (concentration that halved the viability)
Source text: as §1, §2

[7] = Folin-Ciocalteu reagent reduction; conditions: gallic acid equivalents
Description: as §3, §4

[8] = tested on: pooled male rat microsomal liver membranes; assay: Inhibition of lipid peroxidation induced by tert-butyl hydroperoxide; assay type: biochemical; conditions: male rat microsomes, read-out: ILP IC50
Description: as §4

[9] = tested on: Vibrio campbellii BAA 1119 (AI-2); assay: Viability of the quorum-sensing reporter culture (resazurin assay), AI-2 strain; assay type: cell-based; conditions: BAA1119, V. campbellii BAA 1119, resazurin assay, read-out: IC50 (concentration that halved the viability)
Source text: as §1, §2

[10] = ABTS cation radical scavenging; conditions: vitamin C equivalent antioxidant capacity
Description: as §3, §4

[11] = tested on: human dermal fibroblasts (HDF); assay: Cytotoxicity (resazurin assay, 72 h); assay type: cell-based; conditions: Fibroblast
Description: as §5

| SMILES | EC50 [1] | SI (selectivity index) [1] | EC50 [2] | SI (selectivity index) [2] | IC50 (DPPH radical scavenging) | IC50 [3] | SI (selectivity index) [3] | IC50 [4] | FRAP [Fe2+eq] [5] | IC50 [6] | FCR [GAE] [7] | IC50 [8] | IC50 [9] | ABTS [CEAC] [10] | IC50 [11] |
| --- | --- | --- | --- | --- | --- | --- | --- | --- | --- | --- | --- | --- | --- | --- | --- |
| COc1cc(C2Oc3cc(-c4oc5cc(O)cc(O)c5c(=O)c4O)ccc3OC2CO)ccc1O (stereo not drawn) [compound 4, 2,3-dehydrosilybin AB, reference compound] | 10.2 ± 0.4 µM | 2.5 ± 0.2 | 59.9 ± 2 µM | 2.7 ± 0.2 | 14.4 µM | 23.5 ± 1.5 µM | 0.71 | 27.9 ± 0.5 µM | 0.72 ± 0.03 Fe2+eq | 163 ± 3.8 µM | 1.68 ± 0.03 GAE | 34.6 ± 2.3 µM | 25.3 ± 1 µM | 1.46 ± 0.08 CEAC | – |
| COc1cc([C@@H]2Oc3c(O)cc([C@H]4Oc5cc(O)cc(O)c5C(=O)[C@@H]4O)cc3[C@H]2CO)ccc1O [compound 5, silychristin A, reference compound] | > 200 µM | – | > 200 µM | – | 47.2 µM | 205 µM | 0.56 | 72.5 ± 5.4 µM | 0.25 ± 0.02 Fe2+eq | > 200 µM | 1.87 ± 0.07 GAE | 129 µM | > 200 µM | 1.73 ± 0.02 CEAC | 115 µM |
| COc1cc([C@@H]2Oc3c(O)cc(-c4oc5cc(O)cc(O)c5c(=O)c4O)cc3[C@H]2CO)ccc1O [compound 6, 2,3-dehydrosilychristin A, reference compound] | 11.1 ± 0.1 µM | 0.99 ± 0.05 | 22.3 ± 1 µM | 1.9 ± 0.2 | 10.8 ± 0.4 µM | 75.7 ± 8.6 µM | 0.58 | 42.1 ± 2.7 µM | 1.16 Fe2+eq | 43 ± 1.5 µM | 2.43 GAE | 51.9 ± 2.2 µM | 11 ± 0.4 µM | 2.10 CEAC | 44.2 ± 2.1 µM |
| O=C1c2c(cc(O)c(Br)c2O)O[C@H](c2ccc(O)c(O)c2)[C@H]1O [compound 7, 6-Bromotaxifolin] | 11.9 ± 0.5 µM | 1.7 ± 0.2 | 38.9 ± 1.6 µM | 1.5 ± 0.1 | 7.77 µM | 347 µM | 0.35 | 78.4 ± 7.8 µM | 1.33 ± 0.03 Fe2+eq | 59 ± 0.1 µM | 1.70 ± 0.01 GAE | 201 µM | 19.7 ± 1 µM | 0.97 ± 0.03 CEAC | 122 µM |
| O=C1c2c(O)c(Br)c(O)c(Br)c2O[C@H](c2ccc(O)c(O)c2)[C@H]1O [compound 8, 6,8-dibromotaxifolin] | 10.1 ± 0.4 µM | 10.8 ± 0.6 | 38.1 ± 2 µM | 1.5 ± 0.1 | 4.37 µM | 233 µM | 0.68 | 62.2 ± 4.2 µM | 2.20 ± 0.03 Fe2+eq | 55.5 ± 1 µM | 2.08 ± 0.04 GAE | 22.5 ± 1 µM | 109.3 ± 0.8 µM | 1.04 ± 0.05 CEAC | 158 µM |
